From publication PMC8983499 (Cancer Research, 2022)

Columns and labels:
Assay type in all cases: in vivo
[1] = Nephrotoxicity study; conditions: BALB/cJ mice, intravenous, 3 days after drug administration, ELISA, n = 3/group
[2] = Toxicity profile; conditions: healthy BALB/cJ mice, intravenous weekly for 3 weeks, DM1 and DM1–Bdd 0.75 mg/kg of drug content, CIS 10 mg/kg
[3] = Fluorescence imaging of Cy-peptide analogues; conditions: SHO mice, tail-vein injection 0.5 nmol, images 1 and 4 hours; in words

Compound	KIM-1 and/or NGAL in urine [1]	serum biochemical analysis for liver injury and renal function [2]	hematology (blood cell counts and morphologic features) ([2]; n = 4/group)	elimination and organ uptake by fluorescence imaging [3]
COc1cc2cc(c1Cl)N(C)C(=O)C[C@H](OC(=O)[C@H](C)N(C)C(=O)CCS)[C@]1(C)O[C@H]1[C@H](C)[C@@H]1C[C@@](O)(NC(=O)O1)[C@H](OC)/C=C/C=C(\C)C2 [DM1, N2'-deacetyl-N2'-(3-mercapto-1-oxopropyl)-maytansine]	continued induction	induced hepatic and renal toxicity	reticulocytosis without apparent anemia	–
Nc1ccn([C@@H]2O[C@H](CO)[C@@H](O)C2(F)F)c(=O)n1 [GEM, gemcitabine]	continued induction	–	–	–
CO[C@@]12[C@H](COC(N)=O)C3=C(C(=O)C(C)=C(N)C3=O)N1C[C@@H]1N[C@@H]12 [MIT, mitomycin]	continued induction	–	–	–
Cyanine5.5 [free Cy]	–	–	–	mainly taken up by liver and/or other organs
